Reference: ChEMBL document CHEMBL3813616, “Discovery of novel 7-azaindoles as PDK1 inhibitors” (Bioorg Med Chem Lett, 2016)

Tests used:
[1] = target: Maternal embryonic leucine zipper kinase (Homo sapiens) (UniProt Q14680); assay: Inhibition of human MELK (2 to 651 residues) assessed as enzyme activity at 1 uM using 33P ATP by radioactive filter binding assay; set-up: scale not given: the % may be the effect or the level left
[2] = target: T1, Mitogen-activated protein kinase 12 (Homo sapiens) (UniProt P53778); assay: Inhibition of SAPK3 (unknown origin) assessed as enzyme activity at 1 uM using 33P ATP by radioactive filter binding assay; set-up: scale not given: the % may be the effect or the level left
T1 sequence (whole entry): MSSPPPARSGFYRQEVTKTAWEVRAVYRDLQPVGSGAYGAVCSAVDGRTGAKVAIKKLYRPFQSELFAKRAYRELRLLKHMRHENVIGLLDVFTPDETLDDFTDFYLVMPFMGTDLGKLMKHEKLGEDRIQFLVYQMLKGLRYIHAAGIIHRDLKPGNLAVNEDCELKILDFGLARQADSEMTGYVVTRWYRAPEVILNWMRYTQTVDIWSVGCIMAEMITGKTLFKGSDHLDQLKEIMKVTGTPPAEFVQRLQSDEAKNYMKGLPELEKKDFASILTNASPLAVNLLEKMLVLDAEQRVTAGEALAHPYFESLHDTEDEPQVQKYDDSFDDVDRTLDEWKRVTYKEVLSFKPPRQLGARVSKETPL

[3] = target: T2, Serine/threonine-protein kinase Sgk1 (Homo sapiens) (UniProt O00141); assay: Inhibition of human SGK assessed as enzyme activity at 1 uM using 33P ATP by radioactive filter binding assay; set-up: scale not given: the % may be the effect or the level left
T2 sequence (whole entry): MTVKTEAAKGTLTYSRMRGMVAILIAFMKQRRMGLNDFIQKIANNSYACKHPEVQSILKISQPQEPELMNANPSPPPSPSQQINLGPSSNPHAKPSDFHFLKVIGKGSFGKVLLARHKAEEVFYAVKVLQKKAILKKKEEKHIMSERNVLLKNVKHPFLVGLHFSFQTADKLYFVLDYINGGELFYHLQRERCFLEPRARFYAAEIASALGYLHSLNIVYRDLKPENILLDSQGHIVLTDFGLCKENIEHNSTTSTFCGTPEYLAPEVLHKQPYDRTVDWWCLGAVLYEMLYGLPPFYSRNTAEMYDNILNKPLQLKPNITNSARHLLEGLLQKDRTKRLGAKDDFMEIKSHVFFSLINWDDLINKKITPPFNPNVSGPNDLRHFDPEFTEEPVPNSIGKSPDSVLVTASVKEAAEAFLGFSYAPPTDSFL

[4] = target: T3, Serine/threonine-protein kinase TBK1 (Homo sapiens) (UniProt Q9UHD2); assay: Inhibition of human TBK1 (1 to 729 residues) assessed as enzyme activity at 1 uM using 33P ATP by radioactive filter binding assay; set-up: scale not given: the % may be the effect or the level left
T3 sequence (whole entry): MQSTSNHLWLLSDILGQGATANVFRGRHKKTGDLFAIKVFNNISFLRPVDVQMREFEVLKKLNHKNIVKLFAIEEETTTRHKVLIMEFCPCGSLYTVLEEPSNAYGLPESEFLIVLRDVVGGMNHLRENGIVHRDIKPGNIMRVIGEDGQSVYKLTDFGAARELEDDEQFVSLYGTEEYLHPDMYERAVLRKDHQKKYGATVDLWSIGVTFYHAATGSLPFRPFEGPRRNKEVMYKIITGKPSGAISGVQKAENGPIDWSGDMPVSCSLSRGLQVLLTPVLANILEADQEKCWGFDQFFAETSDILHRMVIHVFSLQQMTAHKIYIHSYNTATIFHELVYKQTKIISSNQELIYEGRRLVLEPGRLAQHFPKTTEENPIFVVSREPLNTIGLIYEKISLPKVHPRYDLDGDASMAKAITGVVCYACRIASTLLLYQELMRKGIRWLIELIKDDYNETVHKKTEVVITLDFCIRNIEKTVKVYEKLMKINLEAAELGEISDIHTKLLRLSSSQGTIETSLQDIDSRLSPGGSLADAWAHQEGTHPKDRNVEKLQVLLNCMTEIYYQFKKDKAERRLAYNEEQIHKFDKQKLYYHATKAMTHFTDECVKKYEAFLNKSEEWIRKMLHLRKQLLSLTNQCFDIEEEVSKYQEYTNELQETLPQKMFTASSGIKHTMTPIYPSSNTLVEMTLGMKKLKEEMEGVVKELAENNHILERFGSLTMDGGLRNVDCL

[5] = target: Tyrosine-protein kinase Yes (Homo sapiens) (UniProt P07947); assay: Inhibition of human YES1 (1 to 543 residues) assessed as enzyme activity at 1 uM using 33P ATP by radioactive filter binding assay; set-up: scale not given: the % may be the effect or the level left
[6] = target: T4, 3-phosphoinositide-dependent protein kinase 1 (Homo sapiens, UniProt O15530); assay: Inhibition of PDK1 in human PC3 cells assessed as reduction in AKT Thr308 phosphorylation after 45 mins; type: cell-based, PC-3
T4 sequence (O15530 whole entry): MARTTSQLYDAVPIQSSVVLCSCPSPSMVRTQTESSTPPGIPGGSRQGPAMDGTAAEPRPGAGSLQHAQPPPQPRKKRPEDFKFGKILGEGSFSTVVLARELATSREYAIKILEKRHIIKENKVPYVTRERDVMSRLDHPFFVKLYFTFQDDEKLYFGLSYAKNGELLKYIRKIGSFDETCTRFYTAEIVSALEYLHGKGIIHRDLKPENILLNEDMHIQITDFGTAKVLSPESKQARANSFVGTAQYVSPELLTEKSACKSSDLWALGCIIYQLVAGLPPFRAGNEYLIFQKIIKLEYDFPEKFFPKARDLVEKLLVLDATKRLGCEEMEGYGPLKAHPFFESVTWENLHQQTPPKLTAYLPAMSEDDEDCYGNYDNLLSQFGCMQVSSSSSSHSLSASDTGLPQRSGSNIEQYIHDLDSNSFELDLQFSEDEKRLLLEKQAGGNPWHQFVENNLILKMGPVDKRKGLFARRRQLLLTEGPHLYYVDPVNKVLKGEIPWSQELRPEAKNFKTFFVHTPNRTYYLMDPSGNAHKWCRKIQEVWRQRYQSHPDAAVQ

Chain of Tyrosine-protein kinase Yes (Homo sapiens) (P07947 2-543 limits assumed): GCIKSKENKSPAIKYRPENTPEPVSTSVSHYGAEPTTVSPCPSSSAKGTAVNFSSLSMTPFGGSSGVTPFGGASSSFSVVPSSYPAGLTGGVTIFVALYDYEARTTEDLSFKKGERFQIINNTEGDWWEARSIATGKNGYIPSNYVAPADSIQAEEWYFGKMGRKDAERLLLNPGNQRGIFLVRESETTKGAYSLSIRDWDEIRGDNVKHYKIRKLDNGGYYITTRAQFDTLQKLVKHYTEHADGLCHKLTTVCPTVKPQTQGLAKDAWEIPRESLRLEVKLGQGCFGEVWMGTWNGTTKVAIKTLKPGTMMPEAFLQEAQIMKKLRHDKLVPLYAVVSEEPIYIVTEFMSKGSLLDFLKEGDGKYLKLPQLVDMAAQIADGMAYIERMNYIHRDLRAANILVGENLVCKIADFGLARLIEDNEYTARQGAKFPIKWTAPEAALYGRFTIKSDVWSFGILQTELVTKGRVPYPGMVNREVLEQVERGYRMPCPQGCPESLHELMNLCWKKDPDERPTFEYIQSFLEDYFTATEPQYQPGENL
Chain of Maternal embryonic leucine zipper kinase (Homo sapiens) (Q14680 whole entry, looked up, the tested form may be a part): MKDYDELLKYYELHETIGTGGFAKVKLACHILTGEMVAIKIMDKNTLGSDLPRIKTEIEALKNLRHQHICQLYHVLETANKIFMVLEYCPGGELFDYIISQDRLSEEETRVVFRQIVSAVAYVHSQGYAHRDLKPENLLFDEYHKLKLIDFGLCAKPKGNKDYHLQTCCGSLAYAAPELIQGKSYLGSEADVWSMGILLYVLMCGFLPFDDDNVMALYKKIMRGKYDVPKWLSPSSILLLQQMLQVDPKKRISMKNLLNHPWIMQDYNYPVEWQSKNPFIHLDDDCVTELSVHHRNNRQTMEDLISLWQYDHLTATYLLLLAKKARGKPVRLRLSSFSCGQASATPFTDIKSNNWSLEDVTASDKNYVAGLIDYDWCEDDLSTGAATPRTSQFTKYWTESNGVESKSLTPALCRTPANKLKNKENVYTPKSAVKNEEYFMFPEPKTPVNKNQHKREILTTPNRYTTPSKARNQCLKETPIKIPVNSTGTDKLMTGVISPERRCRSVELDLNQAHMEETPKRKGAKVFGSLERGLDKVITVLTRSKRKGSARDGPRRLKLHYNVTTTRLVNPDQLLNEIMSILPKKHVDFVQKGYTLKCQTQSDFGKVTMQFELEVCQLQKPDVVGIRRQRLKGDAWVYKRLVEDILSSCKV

SMILES | Activity [1] [%] | Activity [2] [%] | Activity [3] [%] | Activity [4] [%] | Activity [5] [%] | IC50 [6] [µM]
CCCCc1cc(-c2c[nH]c3ncc(-c4cnn(C5CCNCC5)c4)cc23)nc(N)n1 | -85 | -42 | -78 | -93 | -78 | 2.3
CCCCc1cc(-c2c[nH]c3ncccc23)nc(N)n1 | -89 | -57 | -12 | -37 | -21 | > 10
CCc1cc(-c2c[nH]c3ncc(-c4cnn(C5CCNCC5)c4)cc23)nc(N)n1 | -81 | -45 | -78 | -65 | -46 | 13
Nc1nccc(-c2c[nH]c3ncccc23)n1 [MERIOLIN 1] | -64 | -59 | -42 | -17 | 2 | > 10
